Activity calls are given as the source filed them.
How the values were obtained:
Troponin, cardiac muscle = Troponin, cardiac muscle (Homo sapiens, UniProt P19429+P45379+P63316); assay: Fluorescence-based biochemical high throughput dose response assay for activators of the calcium sensitivity of cardiac Regulated Thin Filaments (RTF). [Related pubchem assays (depositor defined):AID493008, AID493018, AID504382, AID504383]; assay type: protein-complex assay
[1] = target: T1, RNA-binding protein pos-1 (Caenorhabditis elegans, UniProt G5EF15); assay: inhibitors of POS-1/mex-3 RNA binding, dose response, biochemical, fluorescence polarization (AID 1964);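 further: purified POS-1 fused to maltose binding protein made in E. coli; potency of compounds blocking POS-1 binding to fluorescent RNA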
T1 sequence (G5EF15 whole entry): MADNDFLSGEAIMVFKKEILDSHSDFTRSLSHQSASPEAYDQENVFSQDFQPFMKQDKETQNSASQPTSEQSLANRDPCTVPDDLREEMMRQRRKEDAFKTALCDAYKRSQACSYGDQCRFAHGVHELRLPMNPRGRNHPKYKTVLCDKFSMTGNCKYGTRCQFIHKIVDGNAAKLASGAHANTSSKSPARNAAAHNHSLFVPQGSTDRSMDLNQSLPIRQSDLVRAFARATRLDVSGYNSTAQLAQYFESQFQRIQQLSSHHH

[2] = DNA binding of candidate compounds, dose response, artefact control for RAD54 inhibitor project, biochemical, fluorescence polarization, cherry-pick (AID 651673); assay type: functional
[3] = target: T2, Dual specificity protein phosphatase 3 (Homo sapiens, UniProt P51452); assay: VHR1 phosphatase inhibitors, biochemical (AID 1878)
[4] = target: T3, Voltage-gated N-type calcium channel alpha-1B subunit/Amyloid beta A4 precursor protein-binding family A member 1 (Homo sapiens, UniProt Q00975+Q02410); assay type: protein assay
[5] = target: T4, Tyrosine-protein phosphatase non-receptor type 22 (Homo sapiens, UniProt Q9Y2R2); assay type: functional
T4 sequence (Q9Y2R2 whole entry): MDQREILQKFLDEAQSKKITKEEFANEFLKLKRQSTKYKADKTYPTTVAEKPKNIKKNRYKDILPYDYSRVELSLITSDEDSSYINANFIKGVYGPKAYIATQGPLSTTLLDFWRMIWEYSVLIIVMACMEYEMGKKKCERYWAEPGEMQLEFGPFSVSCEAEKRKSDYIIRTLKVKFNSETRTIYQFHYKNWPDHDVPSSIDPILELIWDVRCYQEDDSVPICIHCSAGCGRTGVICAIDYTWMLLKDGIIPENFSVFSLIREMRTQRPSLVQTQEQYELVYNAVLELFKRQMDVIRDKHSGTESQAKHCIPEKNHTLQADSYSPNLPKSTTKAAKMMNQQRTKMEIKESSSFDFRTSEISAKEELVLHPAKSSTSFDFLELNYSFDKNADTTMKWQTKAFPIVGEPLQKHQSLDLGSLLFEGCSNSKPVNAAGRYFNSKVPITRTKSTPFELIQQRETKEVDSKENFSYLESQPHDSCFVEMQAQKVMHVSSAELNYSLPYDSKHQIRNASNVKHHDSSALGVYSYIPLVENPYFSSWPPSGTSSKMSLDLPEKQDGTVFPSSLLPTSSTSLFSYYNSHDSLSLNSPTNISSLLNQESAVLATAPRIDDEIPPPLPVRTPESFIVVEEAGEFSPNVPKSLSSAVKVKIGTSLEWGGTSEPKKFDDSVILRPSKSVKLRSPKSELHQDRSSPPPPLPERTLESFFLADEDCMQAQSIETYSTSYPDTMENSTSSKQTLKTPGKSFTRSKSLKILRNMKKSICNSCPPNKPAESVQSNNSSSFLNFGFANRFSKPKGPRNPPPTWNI

[6] = target: T5, Tyrosine-protein phosphatase non-receptor type 7 (Homo sapiens, UniProt P35236); assay type: functional
T5 sequence (P35236 whole entry): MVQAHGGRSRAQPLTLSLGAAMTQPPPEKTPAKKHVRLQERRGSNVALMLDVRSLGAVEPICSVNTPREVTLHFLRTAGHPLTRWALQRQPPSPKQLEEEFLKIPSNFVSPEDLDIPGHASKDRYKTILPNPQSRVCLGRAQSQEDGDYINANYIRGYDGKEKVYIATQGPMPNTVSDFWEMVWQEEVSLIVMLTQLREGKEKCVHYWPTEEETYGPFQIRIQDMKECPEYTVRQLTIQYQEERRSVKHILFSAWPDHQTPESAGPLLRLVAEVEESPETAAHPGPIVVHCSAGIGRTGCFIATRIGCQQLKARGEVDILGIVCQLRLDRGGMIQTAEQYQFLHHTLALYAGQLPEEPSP

[7] = target: T2, Dual specificity protein phosphatase 3; assay: VHR1 phosphatase inhibitors, primary screen, biochemical, absorbance, uHTS (AID 1654)
[8] = target: T4, Tyrosine-protein phosphatase non-receptor type 22; assay: LYP1 Fluorescent Assay using OMFP substrate for In Vitro dose response studies. [Related pubchem assays (depositor defined):AID1779, AID1784, AID435024]
[9] = target: T3, Voltage-gated N-type calcium channel alpha-1B subunit/Amyloid beta A4 precursor protein-binding family A member 1; assay type: protein assay; remark: listed apart in the source
[10] = target: T6, Probable nicotinate-nucleotide adenylyltransferase (Staphylococcus aureus (strain N315), UniProt P65502); assay type: functional, Staphylococcus aureus subsp. aureus N315;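 on IC50 Mean: confirmatory dose-response retesting of NadD inhibitor hits first found in an ultra-high-throughput screen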
[11] = target: T6, Probable nicotinate-nucleotide adenylyltransferase; assay type: functional, Staphylococcus aureus subsp. aureus N315; details: read-out: IC50_Mean
[12] = control 3'UTR Renilla luciferase suppression, dose response, counter-screen for Shn3 inhibitor project, cell-based, Clone20-Shn3RL, cherry-picked (AID 624133); assay type: functional
BJ [13] = assay: cytotoxicity toward Ras-transformed BJeLR fibroblasts, dose response, cell-based, alamar blue fluorescence, cherrypicked samples (AID 2631); assay type: functional; details: Homo sapiens;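 further: confirmatory dose-response assay in RAS-dependent BJ fibroblasts engineered with TERT, LT and ST, with cytotoxicity read by fluorescence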
[14] = cytotoxicity in HEK-293T NF-kB-Luc cells, dose response, cytotoxicity control for B/T-cell NF-kB inhibitor project, cell-based, uHTS hits (AID 489019); assay type: functional;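 further: IC50 reflects cytotoxicity as loss of cell viability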
Beta Lactamase = Beta Lactamase (Pseudomonas aeruginosa, UniProt Q932Y6); assay: beta-lactamase reporter inhibitor potency, dose response, artefact control for TLR9-MyD88 binding inhibitor project, BLA reporter cells, FRET fluorescence (AID 588341); assay type: cell-based;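 further: cell based assay in CHO-K1 cells stably expressing beta-lactamase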
Vero = Vero cell cytotoxicity, cytotoxicity control for flavivirus capping enzyme inhibitors (AID 588742); assay type: functional; details: Chlorocebus sabaeus
[15] = target: Glucose-6-phosphate 1-dehydrogenase (Homo sapiens, UniProt P11413); assay: human G6PD enzyme inhibitors, dose response, selectivity assay for P. falciparum G6PD inhibitor project, biochemical, fluorescence (AID 504792); assay type: functional
BJ [16] = assay: cells; assay type: functional, cell-based; details: Homo sapiens
[17] = cytotoxicity toward DRD oncogenic fibroblasts, dose response, cell-based, non-viral oncogenic, luminescence (AID 1934); assay type: functional; details: Homo sapiens

T2 sequence (P51452 whole entry): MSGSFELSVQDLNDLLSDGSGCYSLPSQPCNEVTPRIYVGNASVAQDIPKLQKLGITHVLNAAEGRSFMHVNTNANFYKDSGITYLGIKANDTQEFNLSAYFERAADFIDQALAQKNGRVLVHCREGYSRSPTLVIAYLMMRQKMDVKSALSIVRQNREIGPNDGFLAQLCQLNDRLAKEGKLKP
T3 sequence (Q00975 whole entry): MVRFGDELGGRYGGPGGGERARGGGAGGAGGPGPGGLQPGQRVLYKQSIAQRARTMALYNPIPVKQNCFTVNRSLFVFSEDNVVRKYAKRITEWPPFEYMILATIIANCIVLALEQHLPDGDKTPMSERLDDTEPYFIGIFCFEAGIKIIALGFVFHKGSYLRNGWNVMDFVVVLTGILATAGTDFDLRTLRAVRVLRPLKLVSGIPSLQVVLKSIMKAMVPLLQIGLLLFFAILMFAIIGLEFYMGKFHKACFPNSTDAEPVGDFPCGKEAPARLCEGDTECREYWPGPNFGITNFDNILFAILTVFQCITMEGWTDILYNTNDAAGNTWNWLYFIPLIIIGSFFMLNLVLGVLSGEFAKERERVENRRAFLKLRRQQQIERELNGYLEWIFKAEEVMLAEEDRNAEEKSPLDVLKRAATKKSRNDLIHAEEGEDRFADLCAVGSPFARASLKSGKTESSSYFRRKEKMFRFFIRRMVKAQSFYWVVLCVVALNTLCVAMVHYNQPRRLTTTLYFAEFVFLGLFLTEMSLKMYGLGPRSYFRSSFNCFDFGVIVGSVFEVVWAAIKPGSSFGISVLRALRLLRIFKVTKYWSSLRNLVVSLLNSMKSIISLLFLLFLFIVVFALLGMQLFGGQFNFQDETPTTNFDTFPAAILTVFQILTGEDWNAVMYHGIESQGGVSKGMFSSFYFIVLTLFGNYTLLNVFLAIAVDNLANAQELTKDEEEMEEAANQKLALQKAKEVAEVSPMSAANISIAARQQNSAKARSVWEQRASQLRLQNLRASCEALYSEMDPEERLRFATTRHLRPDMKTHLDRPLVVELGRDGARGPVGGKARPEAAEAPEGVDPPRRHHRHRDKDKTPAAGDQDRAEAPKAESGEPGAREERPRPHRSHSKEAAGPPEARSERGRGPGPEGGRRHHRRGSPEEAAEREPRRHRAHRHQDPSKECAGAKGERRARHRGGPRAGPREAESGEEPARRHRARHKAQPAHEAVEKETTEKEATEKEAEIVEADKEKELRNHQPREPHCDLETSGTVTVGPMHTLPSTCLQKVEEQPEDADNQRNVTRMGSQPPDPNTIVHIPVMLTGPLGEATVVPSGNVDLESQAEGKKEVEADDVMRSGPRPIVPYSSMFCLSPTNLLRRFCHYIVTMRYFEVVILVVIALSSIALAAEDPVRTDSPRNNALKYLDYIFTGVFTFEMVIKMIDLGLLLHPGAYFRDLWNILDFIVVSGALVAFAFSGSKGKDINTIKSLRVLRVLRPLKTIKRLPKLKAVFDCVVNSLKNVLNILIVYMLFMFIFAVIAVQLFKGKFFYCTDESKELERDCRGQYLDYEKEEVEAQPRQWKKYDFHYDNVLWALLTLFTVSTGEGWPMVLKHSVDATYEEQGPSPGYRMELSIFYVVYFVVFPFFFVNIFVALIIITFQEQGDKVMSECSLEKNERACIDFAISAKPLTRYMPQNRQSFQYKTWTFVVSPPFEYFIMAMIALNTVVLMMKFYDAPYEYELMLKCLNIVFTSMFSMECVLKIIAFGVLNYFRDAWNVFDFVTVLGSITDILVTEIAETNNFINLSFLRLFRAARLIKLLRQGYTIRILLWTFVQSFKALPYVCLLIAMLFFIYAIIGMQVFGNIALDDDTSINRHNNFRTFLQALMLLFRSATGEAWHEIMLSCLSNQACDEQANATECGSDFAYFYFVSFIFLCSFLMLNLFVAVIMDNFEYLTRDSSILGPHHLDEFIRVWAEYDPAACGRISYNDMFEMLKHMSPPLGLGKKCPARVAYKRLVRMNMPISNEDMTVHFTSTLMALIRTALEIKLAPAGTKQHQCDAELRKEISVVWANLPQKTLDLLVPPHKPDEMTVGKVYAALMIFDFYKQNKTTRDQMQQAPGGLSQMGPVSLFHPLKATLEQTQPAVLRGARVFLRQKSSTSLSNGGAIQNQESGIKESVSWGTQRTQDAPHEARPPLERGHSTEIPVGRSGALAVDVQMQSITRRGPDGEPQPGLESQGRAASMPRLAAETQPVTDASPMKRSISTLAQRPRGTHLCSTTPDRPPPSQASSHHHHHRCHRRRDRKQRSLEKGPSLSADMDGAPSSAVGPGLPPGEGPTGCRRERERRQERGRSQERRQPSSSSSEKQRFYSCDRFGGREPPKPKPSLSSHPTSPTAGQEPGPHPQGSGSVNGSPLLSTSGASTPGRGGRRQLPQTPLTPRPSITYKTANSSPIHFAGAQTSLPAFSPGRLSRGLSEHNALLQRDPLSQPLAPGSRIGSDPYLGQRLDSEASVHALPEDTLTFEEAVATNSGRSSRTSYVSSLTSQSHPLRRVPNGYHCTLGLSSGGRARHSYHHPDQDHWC
T3 sequence (Q02410 whole entry): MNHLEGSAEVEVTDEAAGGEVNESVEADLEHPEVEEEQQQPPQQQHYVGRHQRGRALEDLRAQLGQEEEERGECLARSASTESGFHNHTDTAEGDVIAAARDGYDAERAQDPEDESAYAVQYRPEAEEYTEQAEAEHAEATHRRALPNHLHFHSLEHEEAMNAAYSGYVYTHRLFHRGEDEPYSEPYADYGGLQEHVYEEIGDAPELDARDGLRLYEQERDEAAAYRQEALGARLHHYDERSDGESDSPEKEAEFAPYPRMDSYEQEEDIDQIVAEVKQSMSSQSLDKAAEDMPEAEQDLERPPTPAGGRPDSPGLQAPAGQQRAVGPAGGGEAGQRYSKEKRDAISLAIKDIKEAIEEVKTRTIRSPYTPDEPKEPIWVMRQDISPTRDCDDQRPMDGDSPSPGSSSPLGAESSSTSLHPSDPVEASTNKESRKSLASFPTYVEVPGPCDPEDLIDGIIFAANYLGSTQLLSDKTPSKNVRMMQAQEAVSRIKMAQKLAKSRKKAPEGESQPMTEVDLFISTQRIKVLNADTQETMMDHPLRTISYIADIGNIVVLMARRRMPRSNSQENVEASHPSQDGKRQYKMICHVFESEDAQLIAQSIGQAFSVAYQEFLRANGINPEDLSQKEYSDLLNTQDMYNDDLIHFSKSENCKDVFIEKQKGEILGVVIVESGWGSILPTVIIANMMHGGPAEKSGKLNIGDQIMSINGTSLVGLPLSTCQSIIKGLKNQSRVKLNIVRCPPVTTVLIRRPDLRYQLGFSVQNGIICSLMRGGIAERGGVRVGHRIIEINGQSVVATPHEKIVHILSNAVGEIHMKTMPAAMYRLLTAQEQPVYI
T6 sequence (P65502 whole entry): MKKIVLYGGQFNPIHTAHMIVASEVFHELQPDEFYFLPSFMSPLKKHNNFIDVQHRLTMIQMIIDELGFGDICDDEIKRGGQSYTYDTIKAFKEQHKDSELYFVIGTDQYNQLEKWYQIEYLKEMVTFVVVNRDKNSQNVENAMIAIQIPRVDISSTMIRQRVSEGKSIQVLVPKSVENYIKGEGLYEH
Glucose-6-phosphate 1-dehydrogenase, sequence (P11413 whole entry): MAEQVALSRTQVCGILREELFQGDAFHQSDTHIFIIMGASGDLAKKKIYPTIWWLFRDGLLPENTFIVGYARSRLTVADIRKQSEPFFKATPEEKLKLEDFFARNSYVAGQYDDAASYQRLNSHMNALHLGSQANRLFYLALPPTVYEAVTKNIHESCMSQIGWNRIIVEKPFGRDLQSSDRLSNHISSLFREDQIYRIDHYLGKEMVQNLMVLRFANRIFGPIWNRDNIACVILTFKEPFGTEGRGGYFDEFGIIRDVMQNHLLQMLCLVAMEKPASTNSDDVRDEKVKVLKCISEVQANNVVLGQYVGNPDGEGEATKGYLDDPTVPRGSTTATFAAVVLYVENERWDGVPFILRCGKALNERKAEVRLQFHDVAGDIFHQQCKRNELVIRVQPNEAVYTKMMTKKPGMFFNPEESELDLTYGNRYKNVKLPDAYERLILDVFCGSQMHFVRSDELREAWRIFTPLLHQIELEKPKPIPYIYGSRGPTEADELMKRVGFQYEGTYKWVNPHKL
Beta Lactamase, sequence (Q932Y6 whole entry): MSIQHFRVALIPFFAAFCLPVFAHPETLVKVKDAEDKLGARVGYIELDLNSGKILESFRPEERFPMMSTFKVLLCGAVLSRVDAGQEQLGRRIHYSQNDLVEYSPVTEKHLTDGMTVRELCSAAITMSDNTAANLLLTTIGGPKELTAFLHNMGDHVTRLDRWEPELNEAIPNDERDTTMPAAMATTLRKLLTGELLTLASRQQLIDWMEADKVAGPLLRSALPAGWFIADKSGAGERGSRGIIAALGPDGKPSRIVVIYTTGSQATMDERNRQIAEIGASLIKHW

Q: What does the source list for `CCN(CC)CCN1C(=O)c2cccc3cc(N)cc(c23)C1=O`?
A: EC50 (Troponin, cardiac muscle): 21.3 µM (inactive); EC50 [1]: 6.62 µM (active); AC50 [2]: 56.9 µM (active)

Q: Which results are given for `O=C(O)c1cccc(-n2cccc2/C=C2/NC(=O)N(c3ccc(Cl)cc3)C2=O)c1`?
A: IC50 [3]: < 1.23 µM (inactive); IC50 [4]: 9.85 µM (active); IC50 [5]: 4.4 µM (active); IC50 [6]: 4.89 µM (active); IC50 [7]: < 0.98 µM (inactive); IC50 [8]: 4.54 µM (active); IC50 [9]: 12.1 µM (active); IC50 [10]: 11.1 µM (active); IC50 [11]: 27.1 µM (active)

Q: What does the source list for `C=C1C(=O)O[C@@H]2C[C@@H](C)[C@@H]3C=CC(=O)[C@@]3(C)[C@@H](OC(=O)CC(=O)O[C@H]3[C@@H]4C(=C)C(=O)O[C@@H]4C[C@@H](C)[C@@H]4C=CC(=O)[C@]43C)[C@H]12`?
A: AC50 [12]: 0.28 µM (active); EC50 (BJ [13]): 0.0525 µM (active); IC50 [14]: > 80 µM (inactive); IC50 (Beta Lactamase): 17.9 µM (inactive); CC50 (Vero): 1.64 µM (active); IC50 [15]: > 80 µM (inactive); EC50 (BJ [16]): 5.4 µM (inconclusive); EC50 [17]: 0.332 µM (inconclusive)

Source: ChEMBL document CHEMBL1201862, “PubChem BioAssay data set” (2004)
